# In publication PMC12630350, “Direct coupling of lactate oxidation with butyryl-CoA formation via a canonical electron transfer flavoprotein in Fusobacterium nucleatum” (The Journal of Biological Chemistry, 2025):
# Target: T1, ETFFN (EtfAB, FN1533-FN1534) (Fusobacterium polymorphum, UniProt A0A1Z3CIN2+A0A1Z3CJK5)
# T1 construct: gene CBG50_09400; heterodimer, His6 tag on N-terminus of EtfB; EtfA 34,980 Da, tagged EtfB 30,560 Da; E. coli BL21(DE3)
# T1 sequence (A0A1Z3CIN2 1-322): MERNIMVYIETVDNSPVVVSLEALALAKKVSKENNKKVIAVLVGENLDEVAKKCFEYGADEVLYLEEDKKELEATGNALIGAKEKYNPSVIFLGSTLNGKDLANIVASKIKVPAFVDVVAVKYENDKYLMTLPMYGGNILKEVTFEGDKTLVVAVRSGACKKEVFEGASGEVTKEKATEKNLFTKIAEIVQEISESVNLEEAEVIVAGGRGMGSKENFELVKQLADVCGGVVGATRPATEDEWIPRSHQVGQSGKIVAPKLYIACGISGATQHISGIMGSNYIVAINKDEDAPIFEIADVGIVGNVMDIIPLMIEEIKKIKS
# T1 sequence (A0A1Z3CJK5 1-259): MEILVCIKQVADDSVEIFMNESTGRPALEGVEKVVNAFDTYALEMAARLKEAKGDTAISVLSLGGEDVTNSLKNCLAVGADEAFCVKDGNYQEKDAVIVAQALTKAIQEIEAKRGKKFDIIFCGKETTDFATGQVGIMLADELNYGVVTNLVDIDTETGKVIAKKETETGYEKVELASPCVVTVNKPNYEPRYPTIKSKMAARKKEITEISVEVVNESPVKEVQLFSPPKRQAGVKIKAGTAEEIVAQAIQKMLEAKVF
# Test: UV-visible spectrum; FAD released by heat denaturation
# Format: binding
# Details: copurified; FAD in alpha-subunit; FAD to protein ratio determined
compound,measurement,value
Cc1cc2nc3c(=O)[nH]c(=O)nc-3n(C[C@H](O)[C@H](O)[C@H](O)COP(=O)(O)OP(=O)(O)OC[C@H]3O[C@@H](n4cnc5c(N)ncnc54)[C@H](O)[C@@H]3O)c2cc1C [FAD],UV-visible spectrum; FAD released by heat denaturation,diagnostic of the FAD cofactor
